This is an account of results in patent US5605703A, “Liposomes encapsulating doxorubicin” (priority 1993, dated 1997).

Entries after “also recorded” stand apart in the source; their conditions may differ.

One series relates to animals. The conditions noted are these: literature; cited from earlier work.
A short description of series [1]: Survival of healthy BALB/C rats after i.p. administration. The conditions noted are these: rat, in vivo, ip, 18 mg/kg, during the second week. The procedure: (§1) As in Example 1, VET liposomes of composition PL:PG:CHOL:DXR (50:50:50:15) and chroman 6 (7.5 mg) were prepared.
Inoculation by intraperitoneal route. Healthy BALB/C rats were treated intraperitoneally with said preparation, and the survival curves compared (FIG. 4) with the administration of free drug at the same dose, 18 mg/kg. In the experiment there was incorporated as a control a preparation of liposomes without drug, of identical characteristics and at the same lipidic concentration which would correspond to the liposomes with DXR.

Series [2] is described as follows: Survival of healthy BALB/C rats after i.v. administration. The conditions noted are these: rat, in vivo, iv, 16 mg/kg, during the second week. As to the method:
as §1
Inoculation intravenously. Healthy BALB/C rats were treated intravenously with the preparation of L-DXR described and the survival curves compared (FIG. 5) with the administration of free drug of the same dose, 16 mg/kg. In the experiment there was incorporated as a control a preparation of liposomes without drug, of identical characteristics and at the same lipidic concentration which would correspond to the liposomes with DXR.

For series [3], the system named is lipid peroxidation in rat liver microsomes (Fe-ascorbate). Briefly: Inhibition of Fe-ascorbate stimulated (chemical) lipid peroxidation in rat liver microsomes, TBARS test. The format is biochemical, Sprague-Dawley male rat. The note with it: for percentage of inhibition of TBARS production, Fe-ascorbate: at a 0.5 mM concentration; for inhibition of lipid peroxidation, Fe-ascorbate (in words) / IC50: rat liver microsomes; for effect with Fe-ascorbate compared with the tests depending on NADPH: Fe-ascorbate vs. NADPH; for IC50: FeSO4, ascorbic acid 0.5 mM, 30 min. at 37° C., read-out: IC50 TBARS production, Fe-ascorbate. The procedure: (§2) Incubations. Suspension of Sprague-Dawley male rat liver microsomes in Krebs-Ringer (KRP) phosphates buffer, were prepared in accordance with the method of Fraga et al.: Free Radical Biol. Med. (1988) 4, 155-161. For the experiences of lipidic peroxidation induced enzymatically, microsomal protein (2 mg) in 1 ml of KRP buffer was incubated for one hour at 37° C. in the presence of 0.1 mM NADPH and 2 μl of DMSO containing the compound to be evaluated at the appropriate concentration. In the experiments where the incubations were prolonged up to three hours, every hour 0.1 ml of NADPH 2 mM was added to the incubation medium. For the experiments of lipid peroxidation induced chemically, 2 mg. of microsomal protein in 1 ml of KRP buffer were incubated for 30 min. at 37° C. in the presence of FeSO4 50/μM, ascorbic acid 0.5 mM and 2 μl of DMSO containing the compound to be evaluated at the appropriate concentration. In all cases, the incubations were arrested by addition of 0.2 ml of BHT at 4%.
(§3) TBARS test. […]. (1988) 4, 155-161 (herein incorporated by reference). Briefly, 0.5 ml of dodecyl sodium sulphate at 3% was added to proportions of 0.5 ml of the microsomal incubations. After mixing them, 2 ml of HC1 0.1 N, 0.3 ml of phosphotungstic acid and 1 ml of 2-thiobarbituric acid were added. The mixture was kept 30 min. at 100° C., and the TBARS were extracted with 3 ml of 1-butanol. After centrifugation, the fluorescence of the butanol phase was determined exciting at 515 nm and reading at 555 nm. The values obtained were expressed as nanomoles of TBARS (malondialdehyde equivalents). The standards of malondialdehyde were prepared from 1,1,3,3-tetramethoxypropane. The experiments were performed in triplicate. The values of […] were determined by representation of the percentage of inhibition vs. log [I], using at least five different concentrations. The values of the percentages of inhibition were referred to the determination carried out in presence of DMSO (2 μl).
(§4) In Table I the results of the inhibition of the lipidic peroxidation shown by several 2.2-dimethylchromans and chromans, fluorated or not, in incubations of rat liver microsomes induced by NADPH or stimulated by Fe-ascorbate, are shown, expressed as values of […] for the inhibition of the production of TBARS.
Background: Microsomes from liver hold many membrane-bound enzymes, among them those of drug oxidation.

Series [4] concerns lipid peroxidation in rat liver microsomes (NADPH). Kind of series: Inhibition of NADPH-induced (enzymatic) lipid peroxidation in rat liver microsomes, TBARS test. The format is biochemical, Sprague-Dawley male rat. The note with it: for IC50 / inhibition of lipid peroxidation, NADPH (in words): rat liver microsomes; for IC50: 0.1 mM NADPH, one hour at 37° C., read-out: IC50 TBARS production, NADPH. As to the method:
as §2, §3, §4

Series [5] is described as follows: Encapsulation of DXR in liposomes (Sephadex G-50M). The format is physicochemical. The note with it: VET liposomes PL:PG:CHOL:DXR (50:50:50:15), anti-oxidant varied. As to the method: A chloroform solution was prepared containing the selected lipids (table II) and 7.5 mg. of the chroman 6 in a round-bottomed flask. Afterward proceeding to the elimination of the organic solvent by means of roto-evaporation, additionally the traces of solvent were eliminated by passage of N2 or by lyophilization. The lipidic film thus obtained was hydrated, with 3 ml of NaCl solution at 0.9% containing DXR, by agitation in a vibromixer at intervals of 30 sec., followed by resting in a bath maintained at 60° C. for the same amount of time and an effective agitation up to 10 min. Thus a liposomal dispersion was obtained containing preferably multilamelar vesicles (MLVs). The liposomal solution was sonicated by ultrasonic irradiation by means of a titanium probe until a change in the turbidity was observed. The protocol of sonication was carried out in relays of 2 min. of sonication and one minute resting under atmosphere of N2 in an ice water bath. In order to eliminate the particles of titanium produced during the sonication, it was centrifuged for 20 min. at 3000 rpm. The liposomal suspension thus obtained contained small unilamelar liposomes (SUVs).
Alternatively, the suspension of multilamelar liposomes obtained as described was submitted to extrusion through polycarbonate filters of 0.4 and 0.2 μm in diameter of pore subsequently, obtaining liposomes designated VET.
The determination of the percentage of encapsulation of DXR was done by chromatographic separation of a portion of the liposomal suspension, by means of Sephadex G-50M utilizing NaCl 0.9% as eluent.
Proceeding in a manner analogous to that described in EXAMPLE 2 to obtain VET liposomes utilizing a ratio by weight of PL:PG:CHOL:DXR of 50:50:50:15 and varying the anti-oxidant agent employed. The results obtained show (Table III) that no appreciable differences exist in the percentages of encapsulation when different inhibitors of the lipidic peroxidation were utilized.

Another series has as its system rat liver microsomes. In kind it is in vitro ADME, Sprague-Dawley male rat.
Series [6] has as its system lipid peroxidation in rat liver microsomes (NADPH). Briefly: Persistence of the inhibition of lipid peroxidation over three hours in rat liver microsomes with NADPH. The format is biochemical, Sprague-Dawley male rat. The note with it: compounds 5, 6, 8, 9 at 15, 1, 6, 5 μM. The procedure:
FIG. 1 illustrates the formulas of the chromenes (1-4), chromans (5-9) and compound of reference, BHT, (10) studied as inhibitors of the lipidic peroxidation. […] The values shown are the average +/-SD of sextuplicate tieterminations that were performed. The difference between consecutive hours are marked by asterisks: * P<0.001, ** P<0.005.
as §2
TBARS test. When the incubations were completed, the lipid peroxidation was evaluated by means of the production of substances which react with thiobarbituric acid (TBARS) as Fraga et al described.: Free Radical Biol. Meal. (1988) 4, 155-161 (herein incorporated by reference). Briefly, 0.5 ml of dodecyl sodium sulphate at 3% was added to proportions of 0.5 ml of the microsomal incubations. […] After centrifugation, the fluorescence of the butanol phase was determined exciting at 515 nm and reading at 555 nm. The values obtained were expressed as nanomoles of TBARS (malondialdehyde equivalents). […] The values of […] were determined by representation of the percentage of inhibition vs. log [I], using at least five different concentrations. […]

In general, mortality refers to the share of the test organisms that died. Lower therefore signals a weak lethal effect. As for `COc1cccc2c1C(=O)c1c(O)c3c(c(O)c1C2=O)C[C@@](O)(C(=O)CO)C[C@@H]3O[C@H]1C[C@H](N)[C@H](O)[C@H](C)O1` [F-DXR], in the series on animals, the “toxicity in animals (in words)” value is reported as “cardiomyopathy”. The mortality in series [1] and in series [2] was 100% in each case.

One may read the IC50 as the midpoint of a concentration-inhibition curve. With `COc1cc2c(cc1OC)OC(C)(C)C=C2` [compound 1], in series [3], the “percentage of inhibition of TBARS production, Fe-ascorbate” value (from here on “percentage of inhibition … Fe-ascorbate”) was 35% and the “inhibition of lipid peroxidation, Fe-ascorbate (in words)” value (from here on “inhibition … Fe-ascorbate (in words)”) was “inactive”. In series [4], the IC50 came out at 11.4 µM. The “% encapsulation (Table III)” value in series [5] is listed as 89%.

Turning to `COc1cc2c(cc1O)C=CC(C)(C)O2` [compound 2], in series [3], the “effect with Fe-ascorbate compared with the tests depending on NADPH” value is “six times smaller”; the “inhibition … Fe-ascorbate (in words)” value was “potent inhibiting effect”; the 50% inhibitory concentration (IC50) came to 3.8 µM. Moreover, in series [4], the IC50 is 1.4 µM. In addition, the “% encapsulation (Table III)” value in series [5] is reported as 85%.

For the compound `CC1(C)C=Cc2cc(O)c(OCC(F)(F)F)cc2O1` [compound 4], the half-inhibitory concentration (IC50) in series [3] worked out at 6 µM. Further, in series [4], the half-inhibitory concentration (IC50) was determined as 3.7 µM and the “inhibition of lipid peroxidation, NADPH (in words)” value was “the greatest inhibiting activity”. For the same compound, the “% encapsulation (Table III)” value in series [5] came to 84%. In the series on rat liver microsomes, the metabolite detected entry is on record as “detection as a metabolite in the incubations with NADPH”.

For the compound `COc1cc2c(cc1OC)OC(C)(C)CC2` [compound 5], in series [3], the “percentage of inhibition … Fe-ascorbate” value is reported as 17% and the “inhibition … Fe-ascorbate (in words)” value is “inactive”. Also, the IC50 in series [4] was determined as 15 µM. Besides, the “% encapsulation (Table III)” value in series [5] was determined as 86%. Further, the “persistence of the inhibiting activity” value in series [6] is “remains constant; also recorded: anti-oxidant efficiency more metabolic-dependent”.

On to `COc1cc2c(cc1O)CCC(C)(C)O2` [compound 6], for which, in series [3], the “inhibiting activity compared with another compound, Fe-ascorbate” value is “superior to that of the BHT; also recorded: an order of magnitude greater than that of the compound 7”; the “effect with Fe-ascorbate compared with the tests depending on NADPH” value was “six times smaller”; the “inhibition … Fe-ascorbate (in words)” value is reported as “potent inhibiting effect; also recorded: the greatest inhibiting power”; the concentration for half-maximal inhibition (IC50) was 1.9 µM. Moreover, in series [4], the “inhibiting activity compared with another compound, NADPH” value is “an order of magnitude greater than that of the compound 7” and the half-maximal inhibitory concentration (IC50) is 0.3 µM. In addition, in series [5], the “% encapsulation (Table III)” value came out at 87%.

With `COc1cc2c(cc1O)OC(C)(C)CC2` [compound 7], in series [3], the “effect with Fe-ascorbate compared with the tests depending on NADPH” value is listed as “six times smaller”; the “inhibition … Fe-ascorbate (in words)” value is listed as “potent inhibiting effect”; the concentration for half-maximal inhibition (IC50) worked out at 19 µM. In addition, the half-inhibitory concentration (IC50) in series [4] is 3.4 µM. Further, the “% encapsulation (Table III)” value in series [5] is on record as 88%.

Regarding `COc1cc2c(cc1OCC(F)(F)F)OC(C)(C)CC2` [compound 8], in series [3], the “percentage of inhibition … Fe-ascorbate” value stood at 5% and the “inhibition … Fe-ascorbate (in words)” value is recorded as “does not present inhibiting activity per se”. Moreover, in series [4], the “inhibiting activity compared with another compound, NADPH” value is given as “nine times greater than that corresponding to chromene 3” and the IC50 came to 6 µM. Moreover, the “% encapsulation (Table III)” value in series [5] was 90%. Moreover, the “persistence of the inhibiting activity” value in series [6] was “slightly higher during the second hour of incubation; also recorded: significant drop in the inhibiting activity during the third hour; also recorded: not significant when it is compared with the percentage of inhibition determined for the first hour of incubation (P>0.005); also recorded: anti-oxidant efficiency more metabolic-dependent”.

Consider `CC1(C)CCc2cc(O)c(OCC(F)(F)F)cc2O1` [compound 9], for which, in series [3], the “inhibiting activity compared with another compound, Fe-ascorbate” value is “slightly inferior to that shown by hydroxychroman 6” and the concentration for half-maximal inhibition (IC50) worked out at 5.3 µM. Further, in series [4], the IC50 was 3.9 µM and the “inhibition of lipid peroxidation, NADPH (in words)” value is listed as “the highest inhibiting activity of the chroman fluorates tested”. Further, the “% encapsulation (Table III)” value in series [5] is 83%. Also, the “persistence of the inhibiting activity” value in series [6] is “decreases during the second and the third hour of incubation; also recorded: less pronounced than that obtained for the compound 6; also recorded: more persistent intrinsic activity”.

As to `Cc1cc(C(C)(C)C)c(O)c(C(C)(C)C)c1` [compound 10, reference compound], in series [3], the “effect with Fe-ascorbate compared with the tests depending on NADPH” value was “A similar relation” and the concentration for half-maximal inhibition (IC50) was 2.7 µM. In addition, the 50% inhibitory concentration (IC50) in series [4] is 0.8 µM.
